Test results reported in patent publication US12227520B2 (priority 2019, dated 2025).
Where two headings read alike, the source gives them in different places.

Tests used:
[1] = Cytotoxicity assay in MT-4 cells; format: cell-based, human; details: human
How it was run: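 Infected MT-4 cells (HIV-1 IIIB, fresh 1:250 dilution of concentrated stock) or mock-infected cells exposed to compounds for 5 days at 37 °C. Viability by CellTiter-Glo luminescence; 5 μM AZT positive control, no-drug negative control. Uninfected cells used for cytotoxicity, with 10 μM puromycin as base-level cytotoxicity control.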

HIV-1 (IIIB) = experiment: Antiviral assay in MT-4 cells (HIV MT-4 antiviral assay); format: cell-based; details: Human immunodeficiency virus 1, IIIB, MT4, 120 h, HIV-1 (IIIB) in MT-4 cells, 5 days incubation; read-out: EC50
How it was run: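 MT-4 cells infected with HIV-1 IIIB (1:250 diluted stock) and exposed to 1:3 serially diluted compound in RPMI with 10% FBS. Viability read by CellTiter-Glo luminescence after 5 days at 37° C; mock-infected cells and 5 μM AZT as controls.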

pLai RLuc reporter virus = experiment: microbe, parasite or virus in culture; format: cell-based, HIV
How it was run: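 MT-4 cells pre-infected 2 h at 37 °C with pLai RLuc virus, then exposed to 1:3 serial dilutions of compound in RPMI/10% FBS with or without 50% human serum for 72 h at 37 °C. Renilla luminescence read-out; serum shift = EC50(HS/CCM)/EC50(CCM).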

[2] = uninfected MT-4 cells, 5 days incubation, read-out: CC50
[3] = Human immunodeficiency virus 1, 72 h, read-out: Antiviral Serum Shift RLuc 50% HS, HS/CCM (RPMI media, 10% FBS, 50% HS, 1% P/S), 72-h incubation
[4] = Human immunodeficiency virus 1, 72 h, read-out: Antiviral Serum Shift RLuc CCM, CCM (RPMI media, 10% FBS, 1% P/S), 72-h incubation

SMILES | CC50 at 5 days [1, 2] [nM] | EC50 (HIV-1 (IIIB)) [nM] | EC50 (pLai RLuc reporter virus; [3]) [nM] | EC50 (pLai RLuc reporter virus; [4]) [nM] | EC50 (pLai RLuc reporter virus; read-out: Antiviral Serum Shift RLuc 50% HS, HS/CCM (RPMI media, 10% FBS, 50% HS, 1% P/S), 72-h incubation) [nM] | CC50 at 5 days ([1]; CC50) [nM]
C[C@@]1(O)CCCN2C[C@@H]1n1cc(C(=O)NCc3ccc(F)cc3F)c(=O)c(O)c1C2=O [Example 14-2, (6R,7S)—N-(2,4-difluorobenzyl)-6,12-dihydroxy-6-methyl-1,11-dioxo-1,4,5,6,7,11-hexahydro-3H-2,7-methanopyrido[1,2-a][1,4]diazonine-10-carboxamide] | 19900 | 2.7 | 0.414 | 0.567 |  | 
O=C(NCc1c(F)cc(F)cc1F)c1cn2c(c(O)c1=O)C(=O)N1C[C@@H]2C[S+]([O-])c2ccccc21 (stereo partly drawn) [Example 95, (6R)-1-hydroxy-2,14-dioxo-N-(2,4,6-trifluorobenzyl)-2,6,7,14-tetrahydro-6,13-methanobenzo[b]pyrido[2,1-f][1,4,7]thiadiazonine-3-carboxamide 8-oxide] | > 50000 | 31.5 | 4.84 | 5.18 |  | 
O=C(NCc1c(F)cc(F)cc1F)c1cn2c(c(O)c1=O)C(=O)N1Cc3cc(F)ccc3C[C@H]2C1 [Example 145, (6S)-10-fluoro-1-hydroxy-2,14-dioxo-N-(2,4,6-trifluorobenzyl)-2,7,12,14-tetrahydro-6H-6,13-methanobenzo[f]pyrido[1,2-a][1,4]diazonine-3-carboxamide] | 8850 | 0.822 | 0.92 | 0.218 |  | 
O=C(NCc1ccc(F)c(Cl)c1F)c1cn2c(c(O)c1=O)C(=O)N1CCCC(F)(F)[C@@H]2C1 (single isomer, unassigned) [Example 117-2] | 15700 | 3.53 | 1270 | 0.603 |  | 
O=C(NCc1c(F)cc(F)cc1F)c1cn2c(c(O)c1=O)C(=O)N1CCCC(CF)C2C1 (single isomer, unassigned) [Example 194-1, 6-(fluoromethyl)-12-hydroxy-1,11-dioxo-N-(2,4,6-trifluorobenzyl)-1,4,5,6,7,11-hexahydro-3H-2,7-methanopyrido[1,2-a][1,4]diazonine-10-carboxamide] | 10800 | 1.39 |  | 0.683 | 222 | 
O=C(NCc1ccc(F)cc1F)c1cn2c(c(O)c1=O)C(=O)N1CCCCC[C@@H]2C1 [Example 5-1, (8R)-N-(2,4-difluorobenzyl)-13-hydroxy-1,12-dioxo-1,3,4,5,6,7,8,12-octahydro-2,8-methanopyrido[1,2-a][1,4]diazecine-11-carboxamide] | 11100 | 2 | 1.24 | 0.235 |  | 
O=C(NCc1ccc(F)c(Cl)c1F)c1cn2c(c(O)c1=O)C(=O)N1CCCC[C@H]2C1 [Example 51, (7S)—N-(3-chloro-2,4-difluorobenzyl)-12-hydroxy-1,11-dioxo-1,4,5,6,7,11-hexahydro-3H-2,7-methanopyrido[1,2-a][1,4]diazonine-10-carboxamide] | 4390 | 1.17 | 2.14 | 0.215 |  | 
O=C(NCc1cccc(F)c1F)c1cn2c(c(O)c1=O)C(=O)N1CCCC[C@H]2C1 [Example 160, (7S)—N-(2,3-difluorobenzyl)-12-hydroxy-1,11-dioxo-1,4,5,6,7,11-hexahydro-3H-2,7-methanopyrido[1,2-a][1,4]diazonine-10-carboxamide] | 11400 | 1.52 | 1.19 | 0.368 |  | 
C[C@H]1CC[C@H](F)[C@H]2CN1C(=O)c1c(O)c(=O)c(C(=O)NCc3c(F)cc(F)cc3F)cn12 [Example 157, (3S,6S,7R)-6-fluoro-12-hydroxy-3-methyl-1,11-dioxo-N-(2,4,6-trifluorobenzyl)-1,4,5,6,7,11-hexahydro-3H-2,7-methanopyrido[1,2-a][1,4]diazonine-10-carboxamide] | 23700 | 5.36 | 5.75 | 1.61 |  | 
CC[C@]1(O)CCCN2C[C@H]1n1cc(C(=O)NCc3c(F)cc(F)cc3F)c(=O)c(O)c1C2=O [Example 93] | > 40400 | 2.24 | 1.55 | 0.462 |  | 
O=C(NCc1c(F)cc(F)cc1F)c1cn2c(c(O)c1=O)C(=O)N1C[C@@H]2CCCC12CC2 [Example 129, (7'S)-12′-hydroxy-1′,11′-dioxo-N-(2,4,6-trifluorobenzyl)-1′,4′,5′,6′,7′,11′-hexahydrospiro[cyclopropane-1,3′-[2,7]methanopyrido[1,2-a][1,4]diazonine]-10′-carboxamide] |  | 1.53 | 4.21 | 0.309 |  | 7440
O=C(NCc1ccc(F)cc1F)c1cn2c(c(O)c1=O)C(=O)N1C[C@@H]2CCC[C@@H]1CF [Example 165, (3R,7S)—N-(2,4-difluorobenzyl)-3-(fluoromethyl)-12-hydroxy-1,11-dioxo-1,4,5,6,7,11-hexahydro-3H-2,7-methanopyrido[1,2-a][1,4]diazonine-10-carboxamide] | 9610 | 1.1 | 7.33 | 0.351 |  | 
O=C(NCc1c(F)cc(F)cc1F)c1cn2c(c(O)c1=O)C(=O)N1CCc3ccc(Br)cc3[C@H]2C1 (single isomer, unassigned) [Example 122-1] | 4740 | 2.57 | 4.78 | 0.534 |  | 
O=C(NCc1c(F)cc(F)cc1F)c1cn2c(c(O)c1=O)C(=O)N1CC[C@H](O)CC[C@H]2C1 [Example 83-2, (5R,8S)-5,13-dihydroxy-1,12-dioxo-N-(2,4,6-trifluorobenzyl)-1,3,4,5,6,7,8,12-octahydro-2,8-methanopyrido[1,2-a][1,4]diazecine-11-carboxamide] | > 50000 | 12.8 | 2.08 | 2.15 |  | 
O=C(NCc1c(F)cc(F)cc1F)c1cn2c(c(O)c1=O)C(=O)N1CC[C@H](F)CC[C@H]2C1 [Example 81-1, (5R,8S)-5-fluoro-13-hydroxy-1,12-dioxo-N-(2,4,6-trifluorobenzyl)-1,3,4,5,6,7,8,12-octahydro-2,8-methanopyrido[1,2-a][1,4]diazecine-11-carboxamide] | 23900 | 1.96 | 0.649 | 0.466 |  | 
C[C@@H]1CCC[C@H]2CN1C(=O)c1c(O)c(=O)c(C(=O)NCc3ccc(F)cc3F)cn12 [Example 52-1, (3R, 7S)—N-(2,4-difluorobenzyl)-12-hydroxy-3-methyl-1,11-dioxo-1,4,5,6,7,11-hexahydro-3H-2,7-methanopyrido[1,2-a][1,4]diazonine-10-carboxamide] | 13100 | 2.15 | 6.18 | 0.245 |  | 
O=C(NCc1c(F)cc(F)cc1F)c1cn2c(c(O)c1=O)C(=O)N1CCc3ccc(Cl)cc3[C@H]2C1 [Example 138, (13S)-11-chloro-4-hydroxy-3,5-dioxo-N-(2,4,6-trifluorobenzyl)-3,5,8,13-tetrahydro-7H-6,13-methanobenzo[g]pyrido[1,2-a][1,4]diazonine-2-carboxamide] | 5020 | 3.17 | 8.7 | 0.708 |  | 
O=C(NCc1ccc(F)c(F)c1F)c1cn2c(c(O)c1=O)C(=O)N1CCCC[C@H]2C1 [Example 161, (7S)-12-hydroxy-1,11-dioxo-N-(2,3,4-trifluorobenzyl)-1,4,5,6,7,11-hexahydro-3H-2,7-methanopyrido[1,2-a][1,4]diazonine-10-carboxamide] | 4630 | 2.1 | 1.01 | 0.3 |  | 
C[C@H]1CC(F)C[C@H]2CN1C(=O)c1c(O)c(=O)c(C(=O)NCc3c(F)cc(F)cc3F)cn12 (stereo partly drawn) [Example 84, (3S,7S)-5-fluoro-12-hydroxy-3-methyl-1,11-dioxo-N-(2,4,6-trifluorobenzyl)-1,4,5,6,7,11-hexahydro-3H-2,7-methanopyrido[1,2-a][1,4]diazonine-10-carboxamide] | 37200 | 2.01 | 1.36 | 0.427 |  | 
C[C@@H]1N2C[C@H](CCC1(C)F)n1cc(C(=O)NCc3c(F)cc(F)cc3F)c(=O)c(O)c1C2=O (stereo partly drawn) [Example 144-1, (3S,7S)-4-fluoro-12-hydroxy-3,4-dimethyl-1,11-dioxo-N-(2,4,6-trifluorobenzyl)-1,4,5,6,7,11-hexahydro-3H-2,7-methanopyrido[1,2-a][1,4]diazonine-10-carboxamide] | 9180 | 1.65 | 2.63 | 0.285 |  | 
O=C(NCc1ccc(F)cc1F)c1cn2c(c(O)c1=O)C(=O)N1CCCC(F)(F)[C@@H]2C1 [Example 16-1, (7S)-N-(2,4-difluorobenzyl)-6,6-difluoro-12-hydroxy-1,11-dioxo-1,4,5,6,7,11-hexahydro-3H-2,7-methanopyrido[1,2-a][1,4]diazonine-10-carboxamide] | 14400 | 2.1 | 3.22 | 0.25 |  | 
